# Data from patent publication US8604192B2, “Cyclohexenyl nucleic acids analogs” (Isis Pharmaceuticals, Inc., priority 2008, dated 2013).
# Tests used:
# [1] = system: PTEN; experiment: 3-10-3 gapped oligomeric compounds targeted to PTEN: in vivo study, liver mRNA levels by real-time PCR; set-up: species or system Balb/c mice; details: estimated ED50 for liver PTEN mRNA reduction (% UTC); single dose of 3.2, 10, 32 and 100 mg/kg; sacrificed 48 hours after administration; calculated using Graphpad Prism
# Description: Quantitation of target mRNA levels is accomplished by real-time quantitative PCR using the ABI PRISM™ 7600, 7700, or 7900 Sequence Detection System (PE-Applied Biosystems, Foster City, Calif.) according to manufacturer's instructions. This is a closed-tube, non-gel-based, fluorescence detection system which allows high-throughput quantitation of polymerase chain reaction (PCR) products in real-time. As opposed to standard PCR in which amplification products are quantitated after the PCR is completed, products in real-time quantitative PCR are quantitated as they accumulate. […] With each cycle, additional reporter dye molecules are cleaved from their respective probes, and the fluorescence intensity is monitored at regular intervals by laser optics built into the ABI PRISM™ Sequence Detection System. In each assay, a series of parallel reactions containing serial dilutions of mRNA from untreated control samples generates a standard curve that is used to quantitate the percent inhibition after antisense oligonucleotide treatment of test samples.
# Prior to quantitative PCR analysis, primer-probe sets specific to the target gene being measured are evaluated for their ability to be “multiplexed” with a GAPDH amplification reaction. […]
# [2] = system: complementary RNA (20-mer RNA); experiment: Tm of gapped oligomeric compound with complementary RNA; format: binding; details: 100 mM phosphate buffer, 0.1 mM EDTA, pH 7, 260 nm, 4 μM oligomeric compound and 4 μM complementary RNA
# Protocol: (§1) Six week old Balb/c mice (Jackson Laboratory, Bar Harbor, Me.) were injected with a single dose of ASOs 464846 and 464847 targeted to PTEN at a dose of 3.2, 10, 32 and 100 mg/kg. The mice were sacrificed 48 hours following the last administration. Liver tissues were homogenized and mRNA levels were quantitated using real-time PCR using procedures illustrated herein for comparison to untreated control levels (% UTC). Plasma chemistry analysis was also completed. Tms were determined in 100 mM phosphate buffer, 0.1 mM EDTA, pH 7, at 260 nm using 4 μM of the gapped oligomeric compounds listed below and 4 μM of the complementary RNA.
# [3] = Liver transaminase levels (ALT) in serum, plasma chemistry analysis; format: in vivo, Balb/c mice; details: approximate serum level, mice, 48 hours; for ALT @ 3.2 mg/kg: single dose 3.2 mg/kg; for ALT @ 10 mg/kg: single dose 10 mg/kg; for ALT @ 32 mg/kg: single dose 32 mg/kg; for ALT @ 100 mg/kg: single dose 100 mg/kg
# Protocol: as §1
# Liver transaminase levels, alanine aminotranferease (ALT) and aspartate aminotransferase (AST), in serum were also measured relative to saline injected mice.
Substance,ED50 [1] [mg/kg],Tm (° C.) vs. 20-mer RNA [2] [°C],ALT @ 3.2 mg/kg [3],ALT @ 10 mg/kg [3],ALT @ 32 mg/kg [3],ALT @ 100 mg/kg [3]
"Te^mCeTeTAG^mCA^mCTGGC^mCeTeTe (DNA TCTTAGCACTGGCCTT; all phosphorothioate, sugars by position and methylation of C not given here; 3-10-3 gapmer, wing nucleosides defined elsewhere, some cytosines 5-methylated) [05/464846]",91,62.35,38,25,22,22
"Tf^mCfTfTAG^mCA^mCTGGC^mCfTfTf (DNA TCTTAGCACTGGCCTT; all phosphorothioate, sugars by position and methylation of C not given here; wing nucleosides modified (marked e), some C 5-methyl) [05/464847]",22,64.37,24,23,24,284
